Our source for the vessel count % control values is PubChem BioAssay AID732 (Emory University Molecular Libraries Screening Center, 2007).

Activity calls are given as the source filed them. No rule for the calls is given here.

This test deals with in vivo angiogenesis, blood vessel count. As to the kind of experiment: angiogenesis inhibition in living animals, in vivo study, HTS (AID 732).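 Also: zebrafish embryos dosed at one day post fertilization; 0% = reference inhibitor and 100% = plate mean.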 To be noted: active compounds read low;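 tested at 30 µM in the well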.

As to `Oc1cc2c(c(Cl)c1O)CCNCC2c1ccccc1` (stereo not drawn), the vessel count % control is 111% (inactive).
Under `CC(CCc1ccccc1)NCC(O)c1ccc(O)c(C(N)=O)c1` (stereo not drawn) stands 89.9% (inactive); under `C1CCC(N=C(NC23CC4CC(CC(C4)C2)C3)N2CCOCC2)CC1`, 111% (inactive); under `Fc1ccc(C(c2ccc(F)cc2)N2CCN(C/C=C/c3ccccc3)CC2)cc1`, 91.5% (inactive).
Under `O=[N+]([O-])c1ccc(O[C@@H]2O[C@H](CO)[C@@H](O)[C@H](O)[C@H]2F)c([N+](=O)[O-])c1` stands 99.2% (inactive); under `CCCc1c(-c2ccc(O)cc2)nn(-c2ccc(O)cc2)c1-c1ccc(O)cc1`, 106% (inactive).
Under `C[n+]1cc2c3c(ccc2c2ccc4cc5c(cc4c21)OCO5)OCO3` stands 0% (inactive); under `O=C(c1ccc(F)cc1)C1CCN(CCn2c(=O)[nH]c3ccccc3c2=O)CC1`, 103% (inactive).
As for `Clc1cnc(Oc2ccc(Oc3ncc(Cl)cc3Cl)cc2)c(Cl)c1`, the vessel count % control was 96.7% (inactive).
As to `CN1CCc2cc(Cl)c(O)cc2[C@@H](c2ccccc2)C1`, the vessel count % control was 97.5% (inactive).
Under `Cc1cn([C@H]2C=C[C@@H](CO)O2)c(=O)[nH]c1=O` stands 99.1% (inactive).
Under `CC(CCc1ccccc1)NC(C)C(O)c1ccc(O)cc1` (stereo not drawn) stands 98.4% (inactive); under `OC(CN1CCN(c2cccc(Cl)c2)CC1)C(c1ccccc1)c1ccccc1` (stereo not drawn), 67.8% (inactive); under `NC(=O)c1cccc(N)c1`, 117% (inactive).
Under `COC1=C(OC)C(=O)c2ccccc2C1=O` stands 115% (inactive); under `NS(=O)(=O)c1cc2c(cc1Cl)NCNS2(=O)=O`, 103% (inactive); under `NCC1OC(O[C@@H]2[C@H](O)C(OC3C(O)C(N)CC(N)C3OC3OC(CO)C(O)C(O)C3N)O[C@@H]2CO)C(N)C(O)C1O` (stereo partly drawn), 116% (inactive).
Take `Nc1nc2c(ncn2COCCO)c(=O)[nH]1`: the vessel count % control was 110% (inactive).
Under `CCCCCC(O)c1cccc(OCc2ccc3ccccc3n2)c1` (stereo not drawn) stands 83.4% (inactive); under `OCC1NC[C@@H](O)C(O)[C@@H]1O` (stereo partly drawn), 89.4% (inactive); under `CN(C)c1cc2c(Nc3ccc4c(cnn4Cc4ccccc4)c3)ncnc2cn1`, 84.7% (inactive).
Under `CC(C)[C@@]1(NC(=O)[C@@H]2C=C3c4cccc5[nH]cc(c45)C[C@H]3N(C)C2)O[C@@]2(O)[C@@H]3CCCN3C(=O)[C@H](Cc3ccccc3)N2C1=O` stands 94% (inactive).
Under `COc1ccccc1N1CCN(CCN(C(=O)c2ccc(I)cc2)c2ccccn2)CC1` stands 105% (inactive).
